Assay results reported in ChEMBL document CHEMBL3585275, “Glycosyl hydroperoxides: a new class of potential antimalarial agents” (Bioorg Med Chem, 2015).
Converted amounts (≈) assume the structure as drawn.

Legend:
[1] = tested on: Plasmodium falciparum; experiment: Antimalarial activity against chloroquine-sensitive Plasmodium falciparum D10 infected in human type A-positive red blood cells assessed as parasite growth inhibition after 72 hrs by lactate dehydrogenase assay; type: functional, organism-based; details: D10, 72 h
[2] = tested on: Plasmodium falciparum; experiment: Antimalarial activity against chloroquine-resistant Plasmodium falciparum W2 infected in human type A-positive red blood cells assessed as parasite growth inhibition after 72 hrs by lactate dehydrogenase assay; type: functional, organism-based; details: W2, 72 h
[3] = Inhibition of hemin crystallization at 0.25 to 10 mol equiv after 18 hrs by spectrophotometric analysis; type: physicochemical

For `CCCCCCCOC[C@H]1O[C@H](OO)C[C@@H](OCCCCCCC)[C@H]1OCCCCCCC`, the IC50 [1] was greater than 5 µg/mL, the IC50 [2] was greater than 5 µg/mL and the “inhibition (INH)” value [3] was “Not Active”.

For `CCCCCCCCCCCCOC[C@H]1O[C@H](OO)C[C@@H](OCCCCCCCCCCCC)[C@H]1OCCCCCCCCCCCC`, the IC50 [1] was greater than 5 µg/mL, the IC50 [2] was greater than 5 µg/mL and the “inhibition (INH)” value [3] was “Not Active”.

In the case of `CCCCCCCCCCCCCCCCCCOC[C@H]1O[C@H](OO)C[C@@H](OCCCCCCCCCCCCCCCCCC)[C@H]1OCCCCCCCCCCCCCCCCCC`, the IC50 [1] was greater than 5 µg/mL, the IC50 [2] was greater than 5 µg/mL and the “inhibition (INH)” value [3] was “Not Active”.

In the case of `CCCCCCCO[C@H]1C[C@@H](OO)OC[C@H]1OCCCCCCC`, the IC50 [1] was 1.42 µg/mL (≈ 4.09 µM), the IC50 [2] was 1.69 µg/mL (≈ 4.88 µM) and the “inhibition (INH)” value [3] was “Active”.

For `CCCCCCCCCCCCCCCCCC(=O)O[C@@H]1C[C@@H](OO)O[C@H]1[C@@H](O)CO`, the IC50 [1] was greater than 5 µg/mL, the IC50 [2] was greater than 5 µg/mL and the “inhibition (INH)” value [3] was “Not Active”.

`C[C@@H]1CC[C@H]2[C@@H](C)C(=O)O[C@@H]3O[C@@]4(C)CC[C@@H]1[C@]32OO4` [ARTEMISININ] gave an IC50 [1] of 0.0121 µg/mL (≈ 0.043 µM) and an IC50 [2] of 0.00824 µg/mL (≈ 0.0292 µM).

For `CCN(CC)CCCC(C)Nc1ccnc2cc(Cl)ccc12` (stereo not drawn) [CHLOROQUINE], the “inhibition (INH)” value [3] was “Active”.
